The values that follow come from patent US6652874B2, “Pharmaceutical preparations and methods for their regional administration” (FemmePharma, priority 1997, dated 2003).

The conditions of data set [1]: rat, in vivo. The procedure: Mature female Sprague-Dawley rats were used for the experiment. 1 mg of the microparticulate danazol was delivered in a volume of 50 μl to the vaginal vault and the animals sacrificed at the times noted below. The uterus and ovaries were separately homogenized and blood was drawn. All tissues and biological samples were processed. Danazol was extracted and assayed by HPLC methodology.
Danazol was extracted from serum and tissue hexane/chloroform 80/20. For tissues, 1 ml aliquote of each homogenate was taken. The extracted danazol was reconstituted in a water/acetonitrile mobile phase and a Beckman Ultrasphere 5 micron, 4.6 mm×15 cm reverse phase column (C-18 RP) was used for all the HPLC analyses. A danazol recovery study was conducted using danazol drug product. The recovery was determined by comparing the extracted signal with unextracted signal.

For data set [2] the following is noted: high doses, up to 800 mg daily; cited from earlier work.

Each structure is given as a SMILES string.

Turning to `C#C[C@]1(O)CC[C@H]2[C@@H]3CCC4=Cc5oncc5C[C@]4(C)[C@H]3CC[C@@]21C` [Danazole, Danazol], the “Serum drug levels (in words)” value in data set [1] is given as “almost undetectable”. Further, the Adverse side effects entry in data set [2] is given as “adverse side effects are seen”.
